Assay results from ChEMBL document CHEMBL1128353, “A novel approach to dual-acting thromboxane receptor antagonist/synthase inhibitors based on the link of 1,3-dioxane-thromboxane receptor antagonists and -thromboxane synthase inhibitors” (J Med Chem, 1995).

Tests used:
[1] = species: Homo sapiens; assay: Antagonistic activity against human platelet aggregation induced by U-46,619.; format: functional, organism-based; conditions: read-out: pA2 (converted)
[2] = target: T1, Thromboxane-A synthase (Homo sapiens, UniProt P24557); assay: In vitro inhibitory activity against human microsomal thromboxane synthase.
T1 sequence (P24557 whole entry): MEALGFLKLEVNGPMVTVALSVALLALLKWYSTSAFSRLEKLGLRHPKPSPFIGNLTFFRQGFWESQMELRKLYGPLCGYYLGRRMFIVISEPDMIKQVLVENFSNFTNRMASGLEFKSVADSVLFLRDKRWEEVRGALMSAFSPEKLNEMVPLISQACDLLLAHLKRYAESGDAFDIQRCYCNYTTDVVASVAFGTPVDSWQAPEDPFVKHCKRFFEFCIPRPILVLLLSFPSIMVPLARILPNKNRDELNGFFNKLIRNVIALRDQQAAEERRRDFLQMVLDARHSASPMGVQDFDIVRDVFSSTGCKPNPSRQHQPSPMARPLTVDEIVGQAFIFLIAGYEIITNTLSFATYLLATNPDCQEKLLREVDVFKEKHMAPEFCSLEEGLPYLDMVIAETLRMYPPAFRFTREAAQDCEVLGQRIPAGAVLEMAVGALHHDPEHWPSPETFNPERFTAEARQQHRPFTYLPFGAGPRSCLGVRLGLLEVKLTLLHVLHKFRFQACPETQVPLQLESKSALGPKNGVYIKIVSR

[3] = test system: Rattus norvegicus; assay: Compound at an oral dose of 10 mg/Kg was tested ex vivo in rat after 5 hr against platelet aggregation induced by U-46,619; format: functional, organism-based; conditions: read-out: pA2 (converted)
[4] = test system: Canis familiaris; assay: Compound at an oral dose of 1 mg/Kg was tested ex vivo after 5 hr for inhibition of thromboxane synthase in dog; format: functional; conditions: Canis lupus familiaris
[5] = test system: Canis familiaris; assay: Compound at an oral dose of 1 mg/Kg was tested ex vivo after 3 hr for inhibition of thromboxane synthase in dog; format: functional; conditions: Canis lupus familiaris
[6] = test system: Rattus norvegicus; assay: Compound at an oral dose of 10 mg/Kg was tested ex vivo after 3 hr for inhibition of thromboxane synthase in rat; format: functional
[7] = test system: Rattus norvegicus; assay: Compound at an oral dose of 10 mg/Kg was tested ex vivo after 1 hr for inhibition of thromboxane synthase in rat; format: functional
[8] = test system: Rattus norvegicus; assay: Compound at an oral dose of 10 mg/Kg was tested ex vivo after 5 hr for inhibition of thromboxane synthase in rat; format: functional
[9] = test system: Canis familiaris; assay: Compound at an oral dose of 1 mg/Kg was tested ex vivo after 1 hr for inhibition of thromboxane synthase in dog; format: functional; conditions: Canis lupus familiaris

Row | IC50 [2] [nM] | SMILES | Kb [1] [nM] | also measured
1 | 10 | CC(C)(CCCCCc1ccc(/C(=C\CCCCC(=O)O)c2cccnc2)cc1)[C@H]1OC[C@@H](C/C=C\CCC(=O)O)[C@@H](c2ccccc2O)O1 | 501 | –
2 | 30 | CC(C)(CCCCOc1ccc(/C(=C\CCCCC(=O)O)c2cccnc2)cc1)[C@H]1OC[C@@H](C/C=C\CCC(=O)O)[C@@H](c2ccccc2O)O1 | 251 | –
3 | > 100000 | O=C(O)CC/C=C\C[C@@H]1CO[C@H](c2ccccc2Cl)O[C@@H]1c1ccccc1O | 3.16 | Kb [3]: 100 nM
4 | 30 | CC(C)(c1ccc(/C(=C\CCCCC(=O)O)c2cccnc2)cc1)[C@H]1OC[C@@H](C/C=C\CCC(=O)O)[C@@H](c2ccccc2O)O1 | 251 | –
5 | – | O=C(O)CCCC/C=C(\c1ccccc1)c1cccnc1 [(E)-ISBOGREL] | > 10000 | inhibition in vivo at 1 mg/kg [4]: 82%; inhibition in vivo at 1 mg/kg [5]: 83%; inhibition in vivo at 10 mg/kg [6]: 97%; inhibition in vivo at 10 mg/kg [7]: 97%; inhibition in vivo at 10 mg/kg [8]: 87%; inhibition in vivo at 1 mg/kg [9]: 93%
6 | 40 | O=C(O)CC/C=C\C[C@@H]1CO[C@H](c2ccc(/C(=C\CCCCC(=O)O)c3cccnc3)cc2)O[C@@H]1c1ccccc1O | 100 | –
7 | 30 | O=C(O)CC/C=C\C[C@@H]1CO[C@H](c2ccccc2OCCOc2cc(C(=O)O)ccc2OCCn2ccnc2)O[C@@H]1c1ccccc1O | 1260 | –
8 | 40 | O=C(O)CC/C=C\C[C@@H]1CO[C@H](c2cccc(OCCOc3ccc(/C(=C\CCCCC(=O)O)c4cccnc4)cc3)c2)O[C@@H]1c1ccccc1O | 794 | –
9 | > 10000 | O=C(O)CC/C=C\C[C@@H]1CO[C@H](c2cncc(/C(=C\CCCCC(=O)O)c3ccccc3)c2)O[C@@H]1c1ccccc1O | 25.1 | –
10 | 40 | O=C(O)CC/C=C\C[C@@H]1CO[C@H](c2ccc(OCCCCCCOc3cc(C(=O)O)ccc3OCCn3ccnc3)cc2)O[C@@H]1c1ccccc1O | 158 | –
11 | 30 | O=C(O)CC/C=C\C[C@@H]1CO[C@H](c2ccccc2OCCOc2ccc(/C(=C\CCCCC(=O)O)c3cccnc3)cc2)O[C@@H]1c1ccccc1O | 158 | –
12 | 60 | O=C(O)CC/C=C\C[C@@H]1CO[C@H](c2ccc(OCCOc3cc(C(=O)O)ccc3OCCn3ccnc3)cc2)O[C@@H]1c1ccccc1O | 501 | –
13 | 10 | O=C(O)CC/C=C\C[C@@H]1CO[C@H](c2ccc(COc3cccc(/C(=C\CCCCC(=O)O)c4cccnc4)c3)cc2)O[C@@H]1c1ccccc1O | 100 | –
14 | 60 | O=C(O)CC/C=C\C[C@@H]1CO[C@H](CCCCCOc2cc(C(=O)O)ccc2OCCn2ccnc2)O[C@@H]1c1ccccc1O | 1260 | –
15 | 1700 | O=C(O)CC/C=C\C[C@@H]1CO[C@H](COc2cc(C(=O)O)ccc2OCCn2ccnc2)O[C@@H]1c1ccccc1O | 3160 | –
16 | 50 | O=C(O)CC/C=C\C[C@@H]1CO[C@H](c2ccc(CCOc3ccc(/C(=C\CCCCC(=O)O)c4cccnc4)cc3)cc2)O[C@@H]1c1ccccc1O | 631 | –
17 | 40 | O=C(O)CC/C=C\C[C@@H]1CO[C@H](C(CCC/C=C(/c2ccccc2)c2cccnc2)C(=O)O)O[C@@H]1c1ccccc1O (stereo partly drawn) | > 10000 | –
18 | 30 | O=C(O)CC/C=C\C[C@@H]1CO[C@H](c2cccc(OCCOc3cc(C(=O)O)ccc3OCCn3ccnc3)c2)O[C@@H]1c1ccccc1O | 158 | –
19 | 30 | O=C(O)CC/C=C\C[C@@H]1CO[C@H](CCOc2ccc(/C(=C\CCCCC(=O)O)c3cccnc3)cc2)O[C@@H]1c1ccccc1O | 200 | –
20 | > 10000 | O=C(O)CC/C=C\C[C@@H]1CO[C@H](c2cncc(/C(=C/CCCCC(=O)O)c3ccccc3)c2)O[C@@H]1c1ccccc1O | 39.8 | –
21 | 40 | O=C(O)CC/C=C\C[C@@H]1CO[C@H](CCCCCCCCCCOc2ccc(/C(=C\CCCCC(=O)O)c3cccnc3)cc2)O[C@@H]1c1ccccc1O | 2510 | –
22 | 10 | O=C(O)CC/C=C\C[C@@H]1CO[C@H](CCCCCOc2ccc(/C(=C\CCCCC(=O)O)c3cccnc3)cc2)O[C@@H]1c1ccccc1O | 200 | –
23 | 20 | O=C(O)CC/C=C\C[C@@H]1CO[C@H](c2ccc(COc3ccc(/C(=C\CCCCC(=O)O)c4cccnc4)cc3)cc2)O[C@@H]1c1ccccc1O | 200 | –
24 | – | O=C(O)c1ccc(OCCn2ccnc2)cc1 [DAZOXIBEN] | > 10000 | inhibition in vivo at 1 mg/kg [4]: 77%; inhibition in vivo at 1 mg/kg [5]: 91%; inhibition in vivo at 10 mg/kg [6]: 87%; inhibition in vivo at 10 mg/kg [7]: 86%; inhibition in vivo at 1 mg/kg [9]: 73%
25 | 40 | O=C(O)CC/C=C\C[C@@H]1CO[C@H](c2cccc(COc3ccc(/C(=C\CCCCC(=O)O)c4cccnc4)cc3)c2)O[C@@H]1c1ccccc1O | 200 | –
26 | 50 | O=C(O)CC/C=C\C[C@@H]1CO[C@H](c2ccc(OCCOc3ccc(/C(=C\CCCCC(=O)O)c4cccnc4)cc3)cc2)O[C@@H]1c1ccccc1O | 631 | –
27 | 3800 | O=C(O)CC/C=C\C[C@@H]1CO[C@H](c2ccc(OCCn3ccnc3)c(C(=O)O)c2)O[C@@H]1c1ccccc1O | 1260 | –
28 | 50 | O=C(O)CC/C=C\C[C@@H]1CO[C@H](c2ccc3cc(/C(=C\CCCCC(=O)O)c4cccnc4)ccc3c2)O[C@@H]1c1ccccc1O | 251 | –
29 | 70 | O=C(O)CC/C=C\C[C@@H]1CO[C@H](c2cccc(OCCCCCCOc3ccc(/C(=C\CCCCC(=O)O)c4cccnc4)cc3)c2)O[C@@H]1c1ccccc1O | 100 | –
